Results taken from patent publication US20230157952A1, “METHOD FOR IMPROVING THE STABILITY OF A PHARMACEUTICAL COMPOSITION COMPRISING A HIGH PENETRATION DRUG, AND THE PHARMACEUTICAL COMPOSITION OBTAINED THEREFROM” (Techfields Inc., priority 2020, published 2023).

Experiment: Effect of concentration on the stability of the solution (purity over time)
Conditions: for Purity (%) at Day 3 / Purity (%) at Day 7 / Purity (%) at hr 0 / Purity(%) at Day 14 / Purity(%) at Day 21 / Purity(%) at Day 28: 25° C.

CCN(CC)CCOC(=O)CCCc1ccc(N(CCCl)CCCl)cc1.Cl
Purity (%) at Day 3 (0.01 wt % in water): 83.1% | Purity (%) at Day 7 (0.01 wt % in water): 72.9% | Purity (%) at hr 0 (0.01 wt % in water): 97.8% | Purity(%) at Day 14 (0.01 wt % in water): 56.9% | Purity(%) at Day 21 (0.01 wt % in water): 43.2% | Purity(%) at Day 28 (0.01 wt % in water): 34.3% | Purity (%) at Day 3 (0.1 wt % in water): 94.1% | Purity (%) at Day 7 (0.1 wt % in water): 89.6% | Purity (%) at hr 0 (0.1 wt % in water): 97.9% | Purity(%) at Day 14 (0.1 wt % in water): 81.5% | Purity(%) at Day 21 (0.1 wt % in water): 73.7% | Purity(%) at Day 28 (0.1 wt % in water): 62.5% | Purity (%) at Day 3 (1 wt % in water): 95.1% | Purity (%) at Day 7 (1 wt % in water): 91.9% | Purity (%) at hr 0 (1 wt % in water): 98.2% | Purity(%) at Day 14 (1 wt % in water): 85.9% | Purity(%) at Day 21 (1 wt % in water): 81.9% | Purity(%) at Day 28 (1 wt % in water): 76.9% | Purity (%) at Day 3 (3 wt % in water): 96.2% | Purity (%) at Day 7 (3 wt % in water): 95.0% | Purity (%) at hr 0 (3 wt % in water): 98.4% | Purity(%) at Day 14 (3 wt % in water): 91.0% | Purity(%) at Day 21 (3 wt % in water): 87.3% | Purity(%) at Day 28 (3 wt % in water): 83.7% | Purity (%) at Day 3 (5 wt % in water): 98.2% | Purity (%) at Day 7 (5 wt % in water): 97.8% | Purity (%) at hr 0 (5 wt % in water): 98.5% | Purity(%) at Day 14 (5 wt % in water): 97.0% | Purity(%) at Day 21 (5 wt % in water): 96.3% | Purity(%) at Day 28 (5 wt % in water): 95.0% | Purity (%) at Day 3 (7 wt % in water): 98.4% | Purity (%) at Day 7 (7 wt % in water): 98.2% | Purity (%) at hr 0 (7 wt % in water): 98.5% | Purity(%) at Day 14 (7 wt % in water): 98.0% | Purity(%) at Day 21 (7 wt % in water): 97.6% | Purity(%) at Day 28 (7 wt % in water): 97.4% | Purity (%) at Day 3 (8 wt % in water): 98. % | Purity (%) at Day 7 (8 wt % in water): 98.3% | Purity (%) at hr 0 (8 wt % in water): 98.5% | Purity(%) at Day 14 (8 wt % in water): 97.9% | Purity(%) at Day 21 (8 wt % in water): 97.7% | Purity(%) at Day 28 (8 wt % in water): 97.3% | Purity (%) at Day 3 (10 wt % in water): 98.5% | Purity (%) at Day 7 (10 wt % in water): 98.3% | Purity (%) at hr 0 (10 wt % in water): 98.6% | Purity(%) at Day 14 (10 wt % in water): 98.2% | Purity(%) at Day 21 (10 wt % in water): 97.7% | Purity(%) at Day 28 (10 wt % in water): 97.4% | Purity (%) at Day 3 (15 wt % in water): 98.5% | Purity (%) at Day 7 (15 wt % in water): 98.4% | Purity (%) at hr 0 (15 wt % in water): 98.6% | Purity(%) at Day 14 (15 wt % in water): 98.1% | Purity(%) at Day 21 (15 wt % in water): 97.7% | Purity(%) at Day 28 (15 wt % in water): 97.3% | Purity (%) at Day 3 (20 wt % in water): 98.4% | Purity (%) at Day 7 (20 wt % in water): 98.3% | Purity (%) at hr 0 (20 wt % in water): 98.6% | Purity(%) at Day 14 (20 wt % in water): 98.2% | Purity(%) at Day 21 (20 wt % in water): 97.8% | Purity(%) at Day 28 (20 wt % in water): 97.3% | Purity (%) at Day 3 (30 wt % in water): 98.4% | Purity (%) at Day 7 (30 wt % in water): 98.4% | Purity (%) at hr 0 (30 wt % in water): 98.5% | Purity(%) at Day 14 (30 wt % in water): 98.3% | Purity(%) at Day 21 (30 wt % in water): 97.7% | Purity(%) at Day 28 (30 wt % in water): 97.4% | Purity (%) at Day 3 (50 wt % in water): 98.4% | Purity (%) at Day 7 (50 wt % in water): 98.3% | Purity (%) at hr 0 (50 wt % in water): 98.6% | Purity(%) at Day 14 (50 wt % in water): 98.2% | Purity(%) at Day 21 (50 wt % in water): 97.8% | Purity(%) at Day 28 (50 wt % in water): 97.4%

CCN(CC)CCOC(=O)CCCc1ccc(N(CCS(C)(=O)=O)CCS(C)(=O)=O)cc1.Cl
Purity (%) at Day 3 (0.01 wt % in water): 83.4% | Purity (%) at Day 7 (0.01 wt % in water): 73.2% | Purity (%) at hr 0 (0.01 wt % in water): 97.6% | Purity(%) at Day 14 (0.01 wt % in water): 55.2% | Purity(%) at Day 21 (0.01 wt % in water): 43.1% | Purity(%) at Day 28 (0.01 wt % in water): 32.0% | Purity (%) at Day 3 (0.1 wt % in water): 93.7% | Purity (%) at Day 7 (0.1 wt % in water): 88.3% | Purity (%) at hr 0 (0.1 wt % in water): 97.7% | Purity(%) at Day 14 (0.1 wt % in water): 80.6% | Purity(%) at Day 21 (0.1 wt % in water): 71.5% | Purity(%) at Day 28 (0.1 wt % in water): 60.7% | Purity (%) at Day 3 (1 wt % in water): 95.1% | Purity (%) at Day 7 (1 wt % in water): 90.8% | Purity (%) at hr 0 (1 wt % in water): 98.0% | Purity(%) at Day 14 (1 wt % in water): 85.1% | Purity(%) at Day 21 (1 wt % in water): 80.3% | Purity(%) at Day 28 (1 wt % in water): 73.8% | Purity (%) at Day 3 (3 wt % in water): 96.0% | Purity (%) at Day 7 (3 wt % in water): 94.3% | Purity (%) at hr 0 (3 wt % in water): 98.1% | Purity(%) at Day 14 (3 wt % in water): 89.7% | Purity(%) at Day 21 (3 wt % in water): 84.8% | Purity(%) at Day 28 (3 wt % in water): 80.6% | Purity (%) at Day 3 (5 wt % in water): 97.8% | Purity (%) at Day 7 (5 wt % in water): 97.2% | Purity (%) at hr 0 (5 wt % in water): 98.2% | Purity(%) at Day 14 (5 wt % in water): 95.3% | Purity(%) at Day 21 (5 wt % in water): 93.0% | Purity(%) at Day 28 (5 wt % in water): 90.3% | Purity (%) at Day 3 (7 wt % in water): 98.3% | Purity (%) at Day 7 (7 wt % in water): 98.1% | Purity (%) at hr 0 (7 wt % in water): 98.4% | Purity(%) at Day 14 (7 wt % in water): 98.0% | Purity(%) at Day 21 (7 wt % in water): 97.5% | Purity(%) at Day 28 (7 wt % in water): 97.0% | Purity (%) at Day 3 (8 wt % in water): 98.2% | Purity (%) at Day 7 (8 wt % in water): 98.2% | Purity (%) at hr 0 (8 wt % in water): 98.3% | Purity(%) at Day 14 (8 wt % in water): 98.1% | Purity(%) at Day 21 (8 wt % in water): 97.6% | Purity(%) at Day 28 (8 wt % in water): 97.0% | Purity (%) at Day 3 (10 wt % in water): 98.3% | Purity (%) at Day 7 (10 wt % in water): 98.3% | Purity (%) at hr 0 (10 wt % in water): 98.4% | Purity(%) at Day 14 (10 wt % in water): 98.0% | Purity(%) at Day 21 (10 wt % in water): 97.5% | Purity(%) at Day 28 (10 wt % in water): 97.1% | Purity (%) at Day 3 (15 wt % in water): 98.4% | Purity (%) at Day 7 (15 wt % in water): 98.2% | Purity (%) at hr 0 (15 wt % in water): 98.4% | Purity(%) at Day 14 (15 wt % in water): 98.1% | Purity(%) at Day 21 (15 wt % in water): 97.7% | Purity(%) at Day 28 (15 wt % in water): 97.2% | Purity (%) at Day 3 (20 wt % in water): 98.4% | Purity (%) at Day 7 (20 wt % in water): 98.3% | Purity (%) at hr 0 (20 wt % in water): 98.4% | Purity(%) at Day 14 (20 wt % in water): 98.2% | Purity(%) at Day 21 (20 wt % in water): 97.6% | Purity(%) at Day 28 (20 wt % in water): 97.2% | Purity (%) at Day 3 (30 wt % in water): 98.4% | Purity (%) at Day 7 (30 wt % in water): 98.2% | Purity (%) at hr 0 (30 wt % in water): 98.5% | Purity(%) at Day 14 (30 wt % in water): 98.1% | Purity(%) at Day 21 (30 wt % in water): 97.8% | Purity(%) at Day 28 (30 wt % in water): 97.3% | Purity (%) at Day 3 (50 wt % in water): 98.3% | Purity (%) at Day 7 (50 wt % in water): 98.2% | Purity (%) at hr 0 (50 wt % in water): 98.4% | Purity(%) at Day 14 (50 wt % in water): 98.2% | Purity(%) at Day 21 (50 wt % in water): 97.7% | Purity(%) at Day 28 (50 wt % in water): 97.3%

CCN(CC)CCOC(=O)CCCc1ccc(N(CCCl)CCCl)cc1.Cl [2-(diethylamino)ethyl 4-[bis(2-chloroethyl)amino]benzenebutyrate.HCl]
Stability when the concentration is 0.1% or lower (in water at 25° C.): not stable
